Legend:
Acetylcholinesterase = Acetylcholinesterase (Electrophorus electricus, UniProt O42275); test: Inhibition of electric eel AChE using acetylthiocholine as substrate assessed as concentration of 5-thio-2-nitrobenzoic acid ion formed by spectrophotometric/Ellman's method
[1] = Permeability of the compound by PAMPA-BBB assay

Sequence of Acetylcholinesterase (O42275 whole entry): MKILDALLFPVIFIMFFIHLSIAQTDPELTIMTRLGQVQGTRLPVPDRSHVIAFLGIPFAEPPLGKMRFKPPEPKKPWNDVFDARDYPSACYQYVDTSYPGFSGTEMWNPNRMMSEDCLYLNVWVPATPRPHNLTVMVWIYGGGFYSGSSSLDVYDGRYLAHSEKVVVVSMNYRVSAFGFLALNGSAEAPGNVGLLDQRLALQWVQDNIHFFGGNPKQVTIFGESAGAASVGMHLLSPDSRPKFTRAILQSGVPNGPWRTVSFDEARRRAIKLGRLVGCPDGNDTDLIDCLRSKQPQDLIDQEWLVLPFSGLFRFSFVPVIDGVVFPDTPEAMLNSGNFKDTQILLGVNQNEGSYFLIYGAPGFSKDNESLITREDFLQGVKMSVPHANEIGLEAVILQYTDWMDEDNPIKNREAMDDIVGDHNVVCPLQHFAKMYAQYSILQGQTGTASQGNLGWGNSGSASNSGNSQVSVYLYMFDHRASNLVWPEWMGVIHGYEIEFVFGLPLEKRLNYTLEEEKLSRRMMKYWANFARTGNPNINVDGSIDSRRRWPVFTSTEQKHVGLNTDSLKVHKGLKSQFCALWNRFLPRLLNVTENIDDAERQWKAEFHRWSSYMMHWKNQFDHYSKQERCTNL

SMILES | IC50 (Acetylcholinesterase) [µM] | Papp [1] [×10⁻⁶ cm/s]
COc1cc2c(cc1O)CN1CC[C@@]23C=CC(O)C[C@H]13 (some centres undefined) | 57.4 | 0.7
COc1c2c(cc3c1[C@@]14CCN(C3)[C@@H]1C[C@@H](OC)[C@@H]1O[C@@H]14)OCO2 | 7.4 | 18.3
